What was measured:
[1] = Pharmacokinetics after oral gavage; assay type: in vivo, swiss webster mice
Procedure: FIG. 3 graphically illustrates pharmacokinetics of SCCP ID No. 6359 in swiss webster mice at a dosage of 50 mg/kg.
These reasonable PK values of the lead abbapolin compounds tested in vivo are promising and indicate optimization will lead to further improvements.

CCRF-CEM = assay: Single dose cell viability assay, CCRF-CEM; assay type: cell-based; details: CCRF-CEM (Leukemia), single dose 10 μM
Procedure: (§1) Lead abbapolin compounds were tested in multiple cancer cell lines, including non-small cell lung cancer (NSCLC) cells, melanoma cells, colon cancer cells, central nervous system (CNS) cancer cells, prostate cancer cells, renal cancer cells, and breast cancer cells. Each of these cancer cells lines were sensitive to the lead abbapolin compounds in a cell viability assay, including 6184 (Table 3), 6277 (Table 4), 6279 (Table 5), 6355 (Table 6), 6359 (Table 7), 6369 (Table 8), and 6421 (Table 9).

PLK1 [2] = biological target: T1, PLK1 (Homo sapiens, UniProt P53350); assay: PLK1 degradation in PC3 cells; assay type: cell-based; parameters: endogenous in cells; host or cells: PC3 prostate cancer cells; details: PC3 cell line, 24 hours
T1 sequence (P53350 whole entry): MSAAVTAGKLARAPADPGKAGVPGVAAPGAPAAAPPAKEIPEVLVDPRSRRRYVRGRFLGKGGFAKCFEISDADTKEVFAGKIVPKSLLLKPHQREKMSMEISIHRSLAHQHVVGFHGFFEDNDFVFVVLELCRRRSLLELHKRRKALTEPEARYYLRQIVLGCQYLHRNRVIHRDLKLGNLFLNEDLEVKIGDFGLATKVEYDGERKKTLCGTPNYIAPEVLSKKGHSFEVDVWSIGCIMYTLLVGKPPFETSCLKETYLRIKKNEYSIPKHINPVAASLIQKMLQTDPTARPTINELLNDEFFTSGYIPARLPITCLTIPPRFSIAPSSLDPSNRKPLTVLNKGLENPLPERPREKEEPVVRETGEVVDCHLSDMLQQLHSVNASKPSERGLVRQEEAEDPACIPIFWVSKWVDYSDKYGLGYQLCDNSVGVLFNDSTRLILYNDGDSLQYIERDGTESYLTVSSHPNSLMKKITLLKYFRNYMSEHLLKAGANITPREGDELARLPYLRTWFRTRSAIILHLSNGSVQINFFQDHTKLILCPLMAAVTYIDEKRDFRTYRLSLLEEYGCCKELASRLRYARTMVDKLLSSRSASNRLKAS
Procedure: (§2) For example, PC3 cells were treated with varying dosages of abbapolin 6369, and percent of PLK1 degradation was measured at 24 hours (FIGS. 8A-8B). HeLa cells were treated with 25 μM abbapolin 6369, and time points shown in the assay were 24 hours, 48 hours, and 72 hours (FIGS. 9A-9B). PC3 cells were treated with varying dosages of abbapolin 6329, and percent of PLK1 degradation was measured at 24 hours (FIGS. […]). HeLa cells were treated with varying dosages of abbapolin 6329, and time points shown in the assay were 24 hours, 48 hours, and 72 hours (FIGS. 11A-11B).

RPMI-8226 = assay: Single dose cell viability assay, RPMI-8226; assay type: cell-based; details: RPMI-8226 (Leukemia), single dose 10 μM
Procedure: as §1

apoptosis = assay: Cell cycle analysis and caspase apoptosis assay; assay type: cell-based; details: versus negative control
Source text: Disclosed small molecule inhibitors can also encourage apoptosis.

[3] = Tolerability in the PC3 xenograft study; assay type: in vivo, athymic nude mice
Procedure: (§3) The efficacy of promising abbapolin compounds were tested in multiple cancer cell lines. […] To do so, athymic nude mice were injected in their flanks with 2.7×10^6 PC3 prostate cancer cells. After the tumors established at 13 days, 5-8 mice per group were treated with 6359 and 6369 daily for 5 days (M-F) for a total of 15 days. […] This is in agreement with the PLK1 degradation in the xenograft tumor.

Solubility in PBS = assay type: physicochemical; details: expressed as IP dose
[4] = test system: PC3 prostate cancer cells; assay: MTT cell viability assay, PC3; assay type: cell-based; details: MTT, 72 hours
Procedure: PC3 prostate cancer cells were maintained in DMEM (Invitrogen™, Carlsebad, CA) supplemented with 10% FBS or Corning® Nu-serum™(BD™ Biosciences, Franklin Lakes, NJ) and 1% penicillin/streptomycin (Invitrogen™) in a humidified incubator and 5% CO2 at 37° C.
(§4) Exponentially growing cells were plated in 96-well dishes. Dose response curves were used to treat cells for 72 hours with inhibitors. Following the three-day treatment, cell viability was measured using the MTT (3-(4,5-dimethylthiazol-2-yl)-2,5-diphenyltetrazolium bromide) colorimetric assay. Cells were incubated for 3 hours with MTT allowing viable cells to metabolize the tetrazolium dye to a purple colored solution. Absorbance measurements (595 nm) were quantified using a DTX 880 plate reader and IC50 values were generated for FLIPs.

PLK1 [5] = biological target: T1, PLK1; assay: PLK1 degradation in HeLa cells; assay type: cell-based; parameters: endogenous in cells; details: HeLa cell line, 24, 48 and 72 hours
Procedure: as §2

UO-31 = assay: Single dose cell viability assay, UO-31; assay type: cell-based; details: UO-31 (Renal), single dose 10 μM
Procedure: as §1

PLK1 [6] = biological target: T1, PLK1; assay: Cellular thermal shift assay (CETSA); assay type: cell-based; parameters: endogenous in cells; host or cells: PC3 prostate cancer cells
Procedure: Cellular thermal shift assay (CETSA) was performed with PC3 cells cultured in RPMI medium supplemented with 10% FBS. For an initial determination of the melting profile of PLK1 AND PLK3, cells dispensed into 96-well PCR plates in the above medium (6000 cells/well in 50 μL) were subjected to temperature gradient (38-60° C.) for 10 min. […] Centrifugation was performed at 14000 rpm to sediment the denatured protein content. Supernatant was collected and subjected to SDS-PAGE, and immunodetection was performed using anti-PLK1 and anti-PLK3 antibodies. PLK1 and PLK3 bands were quantified on a LI-COR C-Digit Blot Scanner, and Tagg and Tagg values were calculated for both proteins. In subsequent experiments, cells were treated at increasing doses (3.0, 1.0, 0.3, 0.1, 0.03 μM) of inhibitors together with DMSO control, for 2 h. Cells were then subjected to heat shock at Tagg for 10 min, and unstable protein was removed by centrifugation step. Following immuno-blotting, bands of stable PLK1 and PLK3 were quantified, normalized to loading control and plotted using GraphPad Prism software. EC50 values for inhibitors were calculated. […] The EC50 of the peptides were determined from the curve fit of the dose response.

[7] = test system: HeLa cervical cancer cells; assay: MTT cell viability assay, HeLa; assay type: cell-based; details: p53 MT, PTEN WT
Source text: HeLa cervical cancer cells were obtained from ATCC (Manassas, VA). Histone H2B GFP-labeled HeLa cells (HeLa-H2B-GFP) were kindly provided by Dr. Geoffrey Wahl (Gene Expression Laboratory, Salk Institute), and were confirmed as >95% GFP positive by FACS (data not shown) but were not otherwise authenticated. Cells were maintained in DMEM (Invitrogen™, Carlsebad, CA) supplemented with 10% FBS or Corning® Nu-serum™ (BD™ Biosciences, Franklin Lakes, NJ) and 1% penicillin/streptomycin (Invitrogen™) in a humidified incubator and 5% CO2 at 37° C.
as §4

MOLT-4 = assay: Single dose cell viability assay, MOLT-4; assay type: cell-based; details: MOLT-4 (Leukemia), single dose 10 μM
Procedure: as §1

[8] = test system: PC3 prostate cancer xenografts; assay: PC3 prostate cancer xenograft study; assay type: in vivo, athymic nude mice
Procedure: as §3

[9] = 6359 100 mg/kg oral, 6369 40 mg/kg IP, 15 days

For “3-(4-octylbenzamido)phenyl phosphate [compound 6369]”, the blood levels ([1]; 50 mg/kg by oral gavage) was “measurable blood levels”, the “oral absorption / PK” value ([1]; mouse, in vivo, po) was “low oral absorption” and the “Cells Remaining (%)” value (CCRF-CEM) was 24.97%. For the same substance, the PLK1 degradation (PLK1 [2]) was “degradation of PLK1”, the “Cells Remaining (%)” value (RPMI-8226) was 39.13% and the levels of apoptosis (apoptosis) was “high levels of apoptosis”. The body weight [3, 9] was “no loss of body weight”, the tolerability / toxicity [3, 9] was “well tolerated” and the “change in liver, kidney, and prostate weight” value ([3]; P>0.05) was “non-significant”. The “limit of solubility in PBS” value (Solubility in PBS) was 40 mg/kg, the IC50 [4] was 2300 ± 900 nM and the PLK1 degradation (PLK1 [5]) was “degradation of PLK1”. For the same substance, the “Cells Remaining (%)” value (UO-31) was 46.64%, the EC50 (PLK1 [6]) was 150 nM and the IC50 [7] was 17500 ± 2900 nM. For the same substance, the “Cells Remaining (%)” value (MOLT-4) was 58.19%, the “growth of PC3 tumors” value ([8]; 6359 100 mg/kg oral gavage, 6369 40 mg/kg IP, daily 5 days (M-F), total 15 days) was “slow the growth of PC3 tumors” and the “PLK1 loss in the xenograft tumor” value ([8]; isolated PC3 xenograft tumors) was “significantly more PLK1 loss compared to PBS and 6359”.

— patent publication US20230338316A1, “ABBAPOLINS AS INHIBITORS AND DEGRADERS OF POLO-LIKE KINASES” (UNIVERSITY OF SOUTH CAROLINA, priority 2022, published 2023)
